In patent US8546608B2, “Proteasome inhibitors and methods of using the same” (Cephalon, Inc., priority 2003, dated 2013):
Where a name gives a salt, the structure may show the parent alone. Read-outs that look alike come from different tables or passages of the source.

Assays:
[1] = molecular target: T1, 20S Human Erythrocyte Proteasome (HEP) (Homo sapiens, UniProt P20618+P28074); test: Chymotrypsin-like activity of 20S Human Erythrocyte Proteasome (HEP), IC50 determination; assay type: biochemical; conditions: assay of Example C, inhibition of HEP
T1 construct: 20S Human Erythrocyte Proteasome (HEP), purchased from Immatics Biotechnologies Inc; purchased Immatics Biotechnologies Inc., Tübingen, Germany; host or cells: human erythrocytes (natural source)
Procedure, shortened: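 20S proteasome at 0.2 μg/mL (about 0.6 nM catalytic sites) in 20 mM Tris with 0.04% SDS, preincubated 15 min at 37° C with inhibitor before Suc-LLVY-AMC (100 μM final). AMC fluorescence read in the linear range; triplicates, IC50 from concentration series.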

[2] = molecular target: T2, proteasome in Molt-4 cells (human leukemia) (Homo sapiens, UniProt P20618+P28074); assay type: cell-based
T2 sequence (P28074 60-263): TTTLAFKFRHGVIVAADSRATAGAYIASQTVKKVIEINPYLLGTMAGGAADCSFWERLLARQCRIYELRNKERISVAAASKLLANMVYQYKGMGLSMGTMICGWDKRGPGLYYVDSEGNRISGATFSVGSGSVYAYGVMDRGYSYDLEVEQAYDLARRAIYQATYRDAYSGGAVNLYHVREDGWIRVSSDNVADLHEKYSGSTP
T2 sequence (P20618 29-241): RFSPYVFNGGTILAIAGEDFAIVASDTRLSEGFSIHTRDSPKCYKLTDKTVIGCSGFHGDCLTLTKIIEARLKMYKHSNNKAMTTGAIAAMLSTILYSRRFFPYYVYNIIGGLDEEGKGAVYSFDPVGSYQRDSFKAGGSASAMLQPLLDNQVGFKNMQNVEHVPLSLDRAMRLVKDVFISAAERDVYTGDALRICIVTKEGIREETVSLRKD
Procedure, shortened: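 Intact Molt-4 cells (6×10^6 cells/mL) in HEPES-buffered saline were preincubated with inhibitor 15 min at 37 °C, then given cell-permeable MeOSuc-FLF-AFC at 25 μM final.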

[3] = assay of Example E, inhibition of MOLT4; read-out: MOLT4 (EC50)

CCCCc1ccc(C(=O)N[C@@H](CNC(=O)c2ccc(-n3cncn3)cc2)C(=O)N[C@@H](CC(C)C)B(O)O)cc1 (as salt: hydrochloride) [E.5.40, Boronic acid, [(1R)-1-[[(2S)-3-(4-(1H-1,2,4-triazol-1-yl)benzoylamide)]-2-[(4-butylbenzoyl)amino]-1H-oxopropyl]amino]-3-methylbutyl] hydrochloride]
melting point: 192 to 195 °C

CC(C)C[C@H](NC(=O)[C@@H](NC(=O)[C@H](CC(C)C)NC(=O)OCc1ccccc1)[C@@H](C)O)B1O[C@@H]2C[C@@H]3C[C@@H](C3(C)C)[C@]2(C)O1 [D.8.1, (2S)-2-[(Benzyloxycarbonyl)amino]-4-methylpentanamide, N-[(1S,2R)-1-[[[(1R)-1-[(3aS,4S,6S,7aR)-hexahydro-3a,5,5-trimethyl-4,6-methano-1,3,2-benzodioxaborol-2-yl]-3-methylbutyl]amino]carbonyl]-2-hydroxypropyl]-]
melting point: 38 to 40 °C

CC(C)C[C@H](NC(=O)[C@H](CNC(=O)OCc1ccccc1)NC(=O)c1ccc(Oc2ccccc2)cc1)B1O[C@@H]2C[C@@H]3C[C@@H](C3(C)C)[C@]2(C)O1 [D.16.9]
melting point: 100 to 103 °C

CCCCCCCCCC(=O)N[C@@H](CNC(=O)c1ccc(S(N)(=O)=O)cc1)C(=O)N[C@@H](CC(C)C)B1O[C@@H]2C[C@@H]3C[C@@H](C3(C)C)[C@]2(C)O1 [D.24.2, Decanamide, N-[(1S)-1-[[[(1R)-1-[(3aS,4S,6S,7aR)-hexahydro-3a,5,5-trimethyl-4,6-methano-1,3,2-benzodioxaborol-2-yl]-3-methylbulyl]amino]carbonyl]-2-[(4-sulfonamidophenyl)carbonyl-amido]ethyl]-]
melting point: 178 to 181 °C

CCCCc1ccc(C(=O)N[C@@H](CNC(=O)c2cccn2C)C(=O)N[C@@H](CC(C)C)B2O[C@@H]3C[C@@H]4C[C@@H](C4(C)C)[C@]3(C)O2)cc1 [D.24.13]
melting point: 88 to 92 °C

CCCCc1ccc(C(=O)N[C@@H](CNC(=O)c2ccno2)C(=O)N[C@@H](CC(C)C)B2O[C@@H]3C[C@@H]4C[C@@H](C4(C)C)[C@]3(C)O2)cc1 [D.24.21, 4-butylbenzamide, N-[(1S)-1-[[[(1R)-1-[(3aS,aS,6S,7aR)-hexahydro-3a,5,5-trimethyl-4,6-methano-1,3,2-benzodioxaborol-2-yl-]-3-methylbutyl]amino]carbonyl]-2-[(1-isoxazol-5-yl)-carbonylamino]ethyl]-]
melting point: 128 to 130 °C

CCCCc1ccc(C(=O)N[C@@H](CNS(=O)(=O)c2cn(C)cn2)C(=O)N[C@@H](CC(C)C)B2O[C@@H]3C[C@@H]4C[C@@H](C4(C)C)[C@]3(C)O2)cc1 [D.24.23, 4-butylbenzamide, N-[(1S)-1-[[[(1R)-1-[(3aS,aS,6S,7aR)-hexahydro-3a,5,5-trimethyl-4,6-methano-1,3,2-benzodioxaborol-2-yl-]-3-methylbulyl]amino]carbonyl]-2-[(1-methyl-1H-imidazole-4-)sulfonylamino]ethyl]-]
melting point: 69 to 71 °C

CC(C)C[C@H](NC(=O)[C@H](CNS(=O)(=O)c1ccc(F)cc1)NC(=O)c1ccc(Oc2ccccc2)cc1)B1O[C@@H]2C[C@@H]3C[C@@H](C3(C)C)[C@]2(C)O1 [D.24.29, 4-phenoxybenzamide, N-[(1S)-1-[[[(1R)-1-[(3aS,4S,6S,7aR)-hexahydro-3a,5,5-trimethyl-4,6-methano-1,3,2-benzodioxaborol-2-yl]-3-methylbutyl]amino]carbonyl]-2-[4-fluoro-benzenesulfonammide]ethyl]-]
melting point: 90 to 93 °C

Cc1cc(C(=O)NC[C@H](NC(=O)c2ccc(Oc3ccccc3)cc2)C(=O)N[C@@H](CC(C)C)B2O[C@@H]3C[C@@H]4C[C@@H](C4(C)C)[C@]3(C)O2)n(C)n1 [D.24.30, 4-phenoxybenzamide, N-[(1S)-1-[[[(1R)-1-[(3aS,aS,6S,7aR)-hexahydro-3a,5,5-trimethyl-4,6-methano-1,3,2-benzodioxaborol-2-yl-]-3-methylbutyl]amino]carbonyl]-2-[(2,5-dimethyl-2H-pyrazole)carbonylamino]ethyl]-]
melting point: 100 to 103 °C

CCCCCCCCCC(=O)N[C@@H](CNC(=O)CCCCC)C(=O)N[C@@H](CC(C)C)B(O)O [E.5.13, Boronic acid, [(1R)-1-[[(2S)-3-(hexanonylamino)-2-[(decanoylamino)]-1-oxopropyl]amino]-3-methylbutyl]]
IC50 [1]: < 10 nM
EC50 [2, 3]: < 200 nM

CCCCc1ccc(C(=O)N[C@@H](CNC(=O)c2cccnc2)C(=O)N[C@@H](CC(C)C)B(O)O)cc1 [E.5.18, Boronic acid, [(1R)-1-[[(2S)-3-(nicotinoylamino)-2-[(4-butylbenzoylamino)]-1-oxopropyl]amino]-3-methylbutyl]]
IC50 [1]: < 10 nM
EC50 [2, 3]: < 200 nM

CCCCc1ccc(C(=O)N[C@@H](CNC(=O)Nc2ccccc2)C(=O)N[C@@H](CC(C)C)B(O)O)cc1 [E.5.19, Boronic acid, [(1R)-1-[[(2S)-3-(3-phenylureido)-2-(4-butylbenzoylamino)-1-oxopropyl]amino]-3-methylbutyl]]
IC50 [1]: < 10 nM
EC50 [2, 3]: < 200 nM

CCCCCCCCCC(=O)N[C@@H](CNC(=O)Nc1ccccc1)C(=O)N[C@@H](CC(C)C)B(O)O [E.5.21, Boronic acid, [(1R)-1-[[(2S)-3-(3-phenylureido)-2-(decanoylamino)-1-oxopropyl]amino]-3-methylbutyl]]
IC50 [1]: < 10 nM
EC50 [2, 3]: < 200 nM

CCCCc1ccc(C(=O)N[C@@H](CNC(=O)c2cc(C)nn2C)C(=O)N[C@@H](CC(C)C)B(O)O)cc1 [E.5.29, Boronic acid, [(1R)-1-[[(2S)-3-(4-(1,3-dimethyl-1H-pyrazole-5-carbonylamino]-2-[(4-butylbenzoyl)amino]-1-oxopropyl]amino]-3-methylbutyl] hydrochloride]
IC50 [1]: < 10 nM
EC50 ([2]; read-out: MOLT4 (EC50); assay of Example E, inhibition of MOLT4): < 200 nM

CCCCc1ccc(C(=O)N[C@@H](CNC(=O)c2ccc(-n3cncn3)cc2)C(=O)N[C@@H](CC(C)C)B(O)O)cc1 [E.5.40, Boronic acid, [(1R)-1-[[(2S)-3-(4-(1H-1,2,4-triazol-1-yl)benzoylamide)]-2-[(4-butylbenzoyl)amino]-1H-oxopropyl]amino]-3-methylbutyl] hydrochloride]
IC50 [1]: < 10 nM
EC50 [2, 3]: < 200 nM

CCCCc1ccc(C(=O)N[C@H](CNC(=O)c2ccc(C)cc2)C(=O)N[C@@H](CC(C)C)B(O)O)cc1 [E.5.41]
IC50 [1]: < 100 nM
EC50 [2, 3]: < 200 nM

CCCCc1ccc(C(=O)N[C@H](C(=O)N[C@@H](CC(C)C)B2OC3(CCCCC3)C3(CCCCC3)O2)[C@@H](C)O)cc1 [F.2.1, 4-Butylbenzamide, N-[(1S,2R)-1-[[[(1R)-1-[13,15-dioxa-14-bora-dispiro[5.0.5.3]pentadec-14-yl]-3-methylbutyl]amino]carbonyl]-2-hydroxypropyl]-]
IC50 [1]: < 100 nM
EC50 [2, 3]: 200 to 2000 nM

Boronic acid, [(1R)-1-[[(2S)-5- [[imino(nitroamino)methyl]amino]-2-[(hexahydro- 2,5-methanopentalene-3a(1H)-carbonyl)amino]-1- oxopentyl]amino]-3-methylbutyl] [E.2.24]
IC50 [1]: < 10 nM
EC50 [2, 3]: > 10000 nM

Boronic acid, [(1R)-1-[[(2S)-5- [[imino(nitroamino)methyl]amino]-2-[[(thiophene- 2-sulfonyl)acetyl]amino]-1-oxopentyl]amino]-3- methylbutyl] [E.2.69]
IC50 [1]: < 10 nM
EC50 [2, 3]: > 10000 nM
